Measured values reported in US20080207521A1, “PEPTIDE LIGAND TO IMPAIR CANCER CELL MIGRATION” (priority 2005, published 2008).

Columns and labels:
[1] = tested on: filamentous actin (F-actin); assay: F-actin content of MDA-MB-468 cells (AlexaFluor 488 phalloidin fluorescent microscopy); type: cell-based, human; conditions: peptide 100 μM; 18 h; compared to untreated cells
Description: MDA-MB-468 cells were detached from the tissue culture dishes by incubation with Versene for 10 min at 37° C., washed, re-suspended as single cells in serum-free DMEM medium supplemented with 0.5% BSA with or without peptide 175 (100 μM), and plated on a cover glass, pre-coated with 10 µg/ml collagen-I, in a cell culture dish. These experiments were terminated after 18 h by fixing the cells with 4% paraformaldehyde for 10 min at 4° C.
The cells were then permeabilized by incubation with 0.5% Trition X-100 for 5 min and blocked by incubation with a 3% BSA solution supplemented with 0.3% Triton X-100 for 45 min. The staining of the cells was performed in the dark by incubation for 40 min with AlexaFluor® 488 phalloidin (Molecular Probes, Eugene, Oreg.) at a dilution of 1:500 and in the presence of 1% BSA. Thereafter the cells were extensively washed and finally mounted with Dako Cytomation fluorescent mounting medium. The samples were examined and photographed in a Nikon Eclipse 800 microscope using a 60× oil immersion objective.
Peptide-induced effects on MDA-MB-468 tumour cell migration and their content of F-actin. (A) The cells were allowed to migrate for 18 h in the absence or presence of the indicated peptides (100 μM) The data in panel A are expressed as means±SEM of 8 separate experiments, each performed in triplicate. * p<0.05. […]

MDA-MB-468 cells = assay: Adhesion of MDA-MB-468 breast cancer cells to collagen I (MTS); type: cell-based, human; conditions: pure peptide 100 μM; 60 min
Description: The adhesion assay was carried out as previously described (12). Briefly, cells were serum-depleted for 16 h, detached with Versene and allowed to adhere as single cells to collagen I for 60 (MDA-MB-468) or 90 min (HB2) at 37° C. Non-adherent cells were removed by washing with PBS. The adherent cells were incubated with a (3-(4,5-dimethylthiazol-2-yl)-5-(3-carboxymethoxyphenyl)-2-(-4-sulfophenyl)-2H-tetrazolium, inner salt (MTS) dye reduction assay (Promega, Madison, Wis.) and absorbance was measured at 490 nm using a Fluostar microplate reader from BMG LabTechnologies (GmbH, Offenberg, Germany). In each experiment a single value was calculated based on the mean of adhesion from six separate wells after the adhesion to plastic alone had been subtracted. The CM used as a control in the adhesion assays was obtained from confluent Wnt-5a overexpressing HB2 cells (for experiments with Wnt-5a antisense HB2 cells) or Wnt-5a overexpressing MCF-7 cells (for MDA-MB-468 cells) stably transfected with a vector over-expressing Wnt5a. A collected CM was always used within three days.
Peptide-induced effects on adhesion and DDR1 phosphorylation in MDA-MB-468 breast cancer cells. (A) Western blot analysis of Wnt-5a protein expression in Wnt-5a antisense and Wnt-5a over-expressing HB2 cells in comparison to MDA-MB-468 tumour cells. The blot is representative of 9 separate experiments. (B) Peptide-induced effects on MDA-MB-468 tumour cell adhesion. The cells were allowed to adhere to collagen type I-coated wells for 60 min in the absence or presence of 100 μM of the indicated peptides or CM. The amounts of adhesive cells were analyzed as described in the methods and the results are given as means±SEM of 8 separate experiments. (C) MDA-MB-468 cell adhesion to collagen I-coated wells in the absence or presence of peptide 175 or a peptide with same amino acid sequence except for a substitution of cysteine for alanine (175Ala) or CM. The amount of adherent cells was estimated as in panel A and expressed as means±SEM of 6 separate experiments, ns=not significant, ** p<0.01 and *** p<0.001. (D) Single MDA-MB-468 cells were allowed to adhere to collagen I-coated plates for 60 min in the absence or presence of the indicated peptides (100 μM), CM or recombinant Wnt-5a (0.8 µg/ml). DDR1 immunoprecipitates were Western blotted with first an anti-phosphotyrosine Ab and then after stripping with an anti-DDR1 Ab. The blots shown are representative of 6 separate experiments.
Effects of peptide 175 modifications on its ability to induce MDA-MB-468 tumour cell adhesion and migration. (A) The cells were allowed to adhere for 60 min to collagen-I coated wells in the absence or presence of peptide 175, three stepwise N-terminal deletion variants of peptide 175 or a formylated version of the tested hexapeptide derived from peptide 175. The amounts of adhesive cells were analyzed as described in the methods and the results are given as means±SEM of 6 separate experiments. (B and C) The cells were allowed to migrate for 18 h in the absence or presence of 1 or 10 μM of peptide 175 (B) or the formylated hexapeptide (C). The data are given as means±SEM of 6 separate experiments, each performed in triplicate. * p<0.05, p<0.01.

Row | Sequence | cellular content of filamentous actin (F-actin) [1] | adhesion to collagen I (MDA-MB-468 cells)
1 | NKTSEGMDGCEL (Human) [peptide 175, Wnt-5a aa 311-322] | significantly higher cellular content of filamentous actin | significantly increased
2 | ADFRKVGDALKEKYD [peptide 169, Wnt-5a aa 242-256] | – | significantly increased
